Consider three molecules from patent publication US11945786B2, “Compounds, devices, and uses thereof” (SIGILON THERAPEUTICS, INC., priority 2016, dated 2024).

In the assay the test system is Macrophage cell lines. Put plainly: In vitro macrophage adhesion assay (Example 8). Particulars: compound conjugated to NHS-activated 96 well plate; 50000 cells per well, 37 degrees Celsius, one hour; averaged across eight wells; normalized PEG750=0, Fibronectin=100. In kind it is cell-based. As for the experimental part:
Exemplary compounds of the invention were prepared at a concentration of 0.1M in a 0.1M bicarbonate buffer (pH 8.2) containing 25% v/v DMSO. Control solutions of 0.1M PEG750-amine and 0.01% fibronectin were prepared in 0.1M bicarbonate buffer (pH 8.2).
Each small molecule amine solution (100 μL) was pipetted into eight wells of an NHS-activated 96 well plate and incubated 2 hours at room temperature. Each plate consisted of two lanes spiked with the two control solutions and ten lanes spiked with test molecule solutions. The test wells were rinsed once with 200 μL 0.1M bicarbonate buffer (pH 8.2) containing 25% v/v DMSO followed by three washes with 200 μL Hyclone™ water. The control wells were rinsed with 0.1M bicarbonate buffer (pH 8.2) followed by three 200 μL Hyclone™ water washes. Plates were dried at room temperature in a sterile hood and stored at 4-8° C. until use.
Macrophage cell lines were plated onto 96 well plates, 50000 cells per well, and incubated at 37 degrees Celsius for one hour. Plates were then placed at a 45-degree angle and washed by applying fluid shear 5 times. Non-adherent and adherent cells were then separated and treated with a Cell titer-glo kit to quantify the number of live cells. Live cells were detected using luminescence-based plate reader measurements. The resulting cell adhesion values for each small molecule amine was averaged across the eight wells and standard deviations calculated. The average cell adhesion value for each small molecule was normalized relative to the averages for the two controls on each plate: PEG750=0, Fibronectin (FN)=100. Small molecule normalized value=(SM-PEG750)/(FN-PEG750). Results are expressed as a percentage of cells adhered on the plates. % Percent adherent cells=(Luminescence of adhered cells)/(Luminescence of adhered+non-adhered cells). In this table, “A” represents a cell adhesion value of <0% to about 10%; “B” represents a cell adhesion value of 10% to about 50%; and “C” represents a cell adhesion value of 50% to 100%.
With `C=CC(=O)NCc1ccc(-n2cc(COC3CCCCO3)nn2)cc1` (stereo not drawn) [Compound 3040, N-(4-(4-(((tetrahydro-2H-pyran-2-yl)oxy)methyl)-1H-1,2,3-triazol-1-yl)benzyl)acrylamide], the “cell adhesion value (percentage of cells adhered on the plates)” value is listed as “C (a cell adhesion value of 50% to 100%)”.

In the case of `NCCOCCOCCOCCn1cc(CN2CCS(=O)(=O)CC2)nn1` [Compound 3037, 4-((1-(2-(2-(2-(2-aminoethoxy)ethoxy)ethoxy)ethyl)-1H-1,2,3-triazol-4-yl)methyl)thiomorpholine 1,1-dioxide], the “cell adhesion value (percentage of cells adhered on the plates)” value was “A (a cell adhesion value of <0% to about 10%)”.

As for Fibronectin [reference compound], the “cell adhesion value (percentage of cells adhered on the plates)” value was “C (a cell adhesion value of 50% to 100%)”.
